B1: C5a: Murine C5a from Cell Sciences, Inc (protein, UniProt P06684 679-755, looked up)
C5a anaphylatoxin: NLHLLRQKIEEQAAKYKHSVPKKCCYDGARVNFYETCEERVARVTIGPLCIRAFNECCTIANKIRKESPHKPVQLGR
modifications: C5a anaphylatoxin
notes: Murine C5a from Cell Sciences, Inc

Columns and labels:
C3aR/C5aR expression = experiment: C3aR and C5aR surface expression by flow cytometry; format: cell-based, C57BL/6 mice; details: 3 days
Experimental: (§1) FIGS. 3(A-I) illustrate graphs showing: A) 1×10^6 CD62L^hiCD25^−CD4^+ cells from WT or C3aR^−/−C5aR^−/− mice were incubated with anti-CD3/CD28 Dynabead activation beads, 5 ng/ml rhIL-2, and 1×10^5 CD11c^+ WT DCs for 3 days. The CD4^+ cell and DC partners were sorted, after which the DCs were assayed for B7 family members (*P<0.01; **P<0.03; ***P=0.07) and the CD4^+ cells were assayed for B7 coinhibitory counter-receptors by flow. B) 1×10^6 CD62L^hiCD25^−CD4^+ cells from WT mice were incubated with anti-CD3/CD28 Dynabead activation beads, 5 ng/ml rhIL-2, and 1×10^5 CD11c^+ WT DCs for 3 days±10 nM C3aR-A/C5aR-A or ±5 ng/ml rhTGF-fβ1. The CD4^+ cell and DC partners were sorted, after which the cells were assayed as in (A; *P<0.01 C3aR-A/C5aR-A vs. TGF-β1). C) 1×10^6 CD62L^hiCD25^− CD4^+ cells from WT or C3aR^−/−C5aR^−/− were incubated with anti-CD3/CD28 Dynabead activation beads, 5 ng/ml rhIL-2, and 1×10^5 CD11c^+ WT DCs for 3 days in the presence of blocking anti-CTLA-4, anti-PD-1, or anti-ICOS-L Abs and percent FoxP3^+ cells assayed by flow cytometry. […] I) C57BL/6 CD4^+ T cells were incubated for 1 hr with anti-CD3/CD28±100 ng/ml C5a and FoxP3 mRNA was quantitated by qPCR. […]

[1] = system: anti-CD3/CD28 stimulated CD4^+ cells; experiment: qPCR of complement and FoxP3 mRNA in anti-CD3/CD28 stimulated CD4+ cells; format: cell-based, C57BL/6 mice; details: for FoxP3 mRNA transcription: anti-CD3/28 stimulated naive CD4+ cells, C5a 100 ng/ml, 1 hr; for transcription of complement genes (complement mRNA): qPCR
Experimental: FIGS. 3(A-I) illustrate graphs showing: A) 1×10^6 CD62L^hiCD25^−CD4^+ cells from WT or C3aR^−/−C5aR^−/− mice were incubated with anti-CD3/CD28 Dynabead activation beads, 5 ng/ml rhIL-2, and 1×10^5 CD11c^+ WT DCs for 3 days. The CD4^+ cell and DC partners were sorted, after which the DCs were assayed for B7 family members (*P<0.01; **P<0.03; ***P=0.07) and the CD4^+ cells were assayed for B7 coinhibitory counter-receptors by flow. B) 1×10^6 CD62L^hiCD25^−CD4^+ cells from WT mice were incubated with anti-CD3/CD28 Dynabead activation beads, 5 ng/ml rhIL-2, and 1×10^5 CD11c^+ WT DCs for 3 days±10 nM C3aR-A/C5aR-A or ±5 ng/ml rhTGF-fβ1. The CD4^+ cell and DC partners were sorted, after which the cells were assayed as in (A; *P<0.01 C3aR-A/C5aR-A vs. TGF-β1). C) 1×10^6 CD62L^hiCD25^− CD4^+ cells from WT or C3aR^−/−C5aR^−/− were incubated with anti-CD3/CD28 Dynabead activation beads, 5 ng/ml rhIL-2, and 1×10^5 CD11c^+ WT DCs for 3 days in the presence of blocking anti-CTLA-4, anti-PD-1, or anti-ICOS-L Abs and percent FoxP3^+ cells assayed by flow cytometry. D) 1×10^6 CD62L^hiCD25^− CD4^+ cells from WT, ICOS^−/−, or PD-1^−/− were incubated with anti-CD3/CD28 Dynabead activation beads, 5 ng/ml rhIL-2, and […] CD11c^+ WT or PD-L1^−/− DCs for 3 days in the presence of blocking anti-CTLA-4, anti-PD-1, or anti-ICOS-L Abs and percent FoxP3^+ cells assayed by flow cytometry. E) Anti-CD3/CD28 stimulated CD4^+ cells were treated with TGF-β1 or buffer and complement mRNA transcripts were assayed by qPCR. F-H) 1×10^4 CD62L^hiCD25^− CD4^+ cells from C57BL/6 mice were incubated with anti-CD3/CD28 Dynabeads and 5 ng/ml rhIL-2 for 3 days in the presence of TGF-β, TGF-β+IL-6, or IL-6 after which cells were assayed for (F) C3 mRNA expression by qPCR, (G) C3 and C5a generation by ELSIA, and (H) C3aR and C5aR surface expression by flow cytometry. I) C57BL/6 CD4^+ T cells were incubated for 1 hr with anti-CD3/CD28±100 ng/ml C5a and FoxP3 mRNA was quantitated by qPCR.
For C3aR/C5aR signaling to be absent, local complement production by interacting DCs and CD4^+ cells must not occur or be suppressed. […] As a first test of this, we incubated anti-CD3/CD28 stimulated CD4^+ cells in the presence and absence of TGF-β1. […] To test how IL-6 affects CD4^+ cell complement production, we added IL-6 to naive CD4^+ cells. […]
[…] for 5 min at 20° C. using Trizol (Invitrogen, Carlsbad, Calif.) according to the manufacturer. When C3aR and C5aR mRNAs were analyzed, preparations were treated with DNase I (standard protocol) to remove genomic DNA. cDNAs were synthesized by incubating 20 μl of mRNAs in Sprint PowerScript Single Shots (Clontech, Mountain View, Calif.). […]

[2] = system: DC-CD4^+ cell C3a/C5a production; experiment: C3a/C5a generation by ELISA; format: cell-based, C57BL/6 mice; details: 3 days
Experimental: as §1, with “TGF-β1).” for “TGF-β1). C) 1×10^6 CD62L^hiCD25^− CD4^+ cells from WT or C3aR^−/−C5aR^−/− were incubated with anti-CD3/CD28 Dynabead activation beads, 5 ng/ml rhIL-2, and 1×10^5 CD11c^+ WT DCs for 3 days in the presence of blocking anti-CTLA-4, anti-PD-1, or anti-ICOS-L Abs and percent FoxP3^+ cells assayed by flow cytometry.”
For C5a, C3a, IL-2, IL-10, and IL-6, capture and biotinylated detection Ab pairs were purchased from BD Biosciences. […] Reactions were terminated using 1N H2SO4 and plates were read using a SpectraMax M2 fluorimeter. • Induction and Evaluation of EAE

[3] = system: human CD45RA^+CD25^−CD4^+ cells; experiment: Human iTreg preparation and human Treg suppression assay; format: cell-based
Experimental: FIGS. 5(A-G) illustrate graphs showing, A-C) EAE was induced in FoxP3-GFP knockin mice and 10 days after disease onset, CD4 cells were isolated from spleens and lymph nodes and sorted on GFP. 4×10^6 GFP negative cells were adoptively transferred into Rag2^−/− mice. The mice were subsequently injected with 1×10^6 FoxP3-GFP positive cells or PBS after which A) weight change, B) clinical scores, and C) percent FoxP3^+ cells were assayed. D-E) EAE was induced in WT and C3aR^−/−C5aR^−/− mice and at day 12 post disease induction draining LN cells were harvested and assayed for D) % FoxP3^+ cells, and E) suppressive capacity as above. F) EAE was induced in FoxP3-GFP knockin mice and 10 days after induction mice were treated with buffer control, C3aR-A/C5aR-A, or ex vivo generated FoxP3^+ Tregs (from FoxP3-GFP mice with C3aR-A/C5aR-A), after which […]) clinical scores were assessed. G) CD25^+ cells from 1×10^6 CD25^−CD4^+ Human T cells isolated by flow cytometry and incubated with soluble anti-CD3, IL-2, and autologous DCs in the presence and absence of TGF-β, C3aR-A/C5aR-A, or anti-C3a/C5a mAbs for 3 days were incubated with CFSE labeled autologous naive T cells, anti-CD3, and autologous DCs and percent dividers determined 3 days thereafter by CFSE dilution. […]

naive CD4^+ cells = experiment: FoxP3+ iTreg induction from naive CD4+ cells stimulated with anti-CD3, IL-2 and DCs (flow cytometry); format: cell-based, mice
iTregs = experiment: Costimulatory molecule expression of iTregs by flow cytometry; format: cell-based, mice; details: higher
Experimental: as §1

[4] = system: CellTracker Red-labeled OT-II cells; experiment: Murine Treg suppression assay; format: cell-based, mice; details: cells from stimulated naive C3−/−C5−/− CD4+ cells, C5a added

Molecule | C3aR/C5aR expression (C3aR/C5aR expression) | FoxP3 mRNA transcription [1] | transcription of complement genes (complement mRNA) [1] | DC-CD4+ cell C3a/C5a production [2] | costimulatory molecules on human iTregs (phenotyping) ([3]; human iTregs) | suppression by CD25+ (FoxP3+) cells of CFSE-labeled CD25−CD4+ cells ([3]; human, equal number of sorted CD25+ cells, DCs, anti-CD3, same individual) | FoxP3+ cell induction (naive CD4^+ cells; anti-CD3/CD28 stimulated CD4+ cells, added TGF-β1) | costimulatory molecule expression of iTregs generated with exogenous TGF-β1 relative to those generated by C3aR/C5aR antagonism (iTregs) | suppressor function [4] | iTreg induction (naive CD4^+ cells; naive C3−/−C5−/− CD4+ cells stimulated with anti-CD3, DCs and IL-2, C5a added)
IL-6: cytokine IL-6 added to naive CD4+ cells | upregulated | inhibited | upregulated | evoked | – | – | – | – | – | –
TGF-β1: human TGF-β1 from Prospec Bio | did neither | – | abolished | did neither | showed costimulatory molecules | little effect | induced FoxP3^+ cells | 3-6 fold | – | –
B1 | – | inhibited | – | – | – | – | – | – | blocked | blocked
